In publication PMC9388626, “STUB1 is an intracellular checkpoint for interferon gamma sensing” (Scientific Reports, 2022):

What was measured:
[1] = system: B16-F10 cells; experiment: Validation of monoclonal Stub1-knockout lines (Western, ICE CRISPR analysis); assay type: cell-based, murine; settings: single clone from Stub1-knockout B16-F10 cells
Procedure: Tumour cells were genetically edited by electroporating the Cas9/crRNA/tracrRNA or Cas9/sgRNA ribonucleoprotein (RNP) complexes into cells using the 4D-nucleofector system (Lonza). To prepare the guide RNA complex, a 1:1 mixture of Alt-R crRNA and tracrRNA (50 µM each, IDT) in nuclease-free duplex buffer (IDT) was heated at 95 °C for 5 min, followed by cooling to room temperature. The crRNA/tracrRNA complex or the sgRNA (150 pmol) was mixed with Alt-R S.p. HiFi Cas9 Nuclease V3 (100 pmol, IDT, #1081060), and the resulting mixture was incubated at room temperature for 10 min to form the final RNP complexes which were used immediately. In parallel, the harvested tumour cells were rinsed with PBS. After re-suspending in 20 µl nucleofactor solution (Lonza), the cell suspension was added to the final RNP complexes (4.6 µl) in microcentrifuge tube. The resulting cell suspension was transferred to a designated well of nucleocuvette strip which was then pulsed with the nucleofector system using a preset program. After pulsing, culture media (75 µl) was added and the cell suspension was transferred to a designated well of a 12-well plate filled with 1.0 ml culture media. After 48 h incubation, the CRISPR-edited B16-F10 were subcloned by limiting dilution. The monoclonal cell lines were validated by Western blotting and analyzing the Sanger sequencing results of the PCR amplicon (~ 800 bp) flanking the crRNA-targeted site using ICE v2 CRISPR analysis tool (Synthego). For CT26, the cells were sorted for the top 50th percentile of IFNGR1-high population using BD FACSAria to enrich for the Stub1-null cells (Supplementary Fig. 10a). Human tumour cells, e.g., DU145, PC-3 and MCF7, were used right after the CRISPR editing. Sorting or subcloning was not applied to the human cell lines, since these lines were studied for a brief period in in vitro setting. Loss of STUB1 protein in the human cell lines was confirmed by Western blot analysis.

[2] = system: B16-F10 cells; experiment: Western blot, protein expression after 24 h IFNγ; assay type: cell-based, murine
Procedure: Parental, CRISPR-edited or biologic-overexpressed tumour cells were seeded in a cell density of 60,000 (B16-F10), 150,000 (CT26), 100,000 (A375), or 200,000 (A549) per well in 12-well plate filled with 0.8 ml culture media + 10% FBS. After overnight incubation, the culture media were replaced with 1 ml fresh media supplemented with 10% FBS and the designated concentration of the recombinant mouse IFNγ (R&D Systems, #485-MI-100) or recombinant human IFNγ (R&D Systems, #285-IF-100). The cells were stimulated with the cytokine for 24 h before they were harvested by trypsinization for flow cytometry, western blot, or qPCR analysis (6 h treatment).
Cells were dissociated from the wells with 0.25% trypsin (Gibco, 25200056). After rinsing with 0.5 ml PBS, the cell pellets were lysed with chilled cell lysis buffer (Cell Signaling Technology, #9803) supplemented with Halt protease inhibitor cocktail (Thermo Scientific, #78430) and phosphatase inhibitor (Sigma-Aldrich, # 4906837001) for 30 min with intermittent vortexing. The lysate was transferred into PCR-strip tubes and sonicated in a chilled water bath sonicator (QSonica). Lysates were clarified by centrifugation at 15,000 rpm at 4 °C for 15 min. Protein concentration was determined using BCA protein assay kit (Pierce, #23225). The lysates were mixed with LDS sample buffer (Life Technologies, NP0008) and sample reducing agent (Life Technologies, NP0009), followed by heating at 70 °C for 10 min to fully denature the protein. […] Membrane blots were pre-stained with total protein stain (LI-COR, # 926-11016) and imaged with Odyssey CLx. […] The blots were finally probed, for overnight at 4 °C, with the appropriate primary antibodies diluted in Intercept (TBS) blocking buffer supplemented with 0.1% (v/v) Tween-20, followed by the secondary antibodies (IRDye 800CW donkey anti-rabbit or anti-mouse IgG, LI-COR) for 1 h at room temperature. Fluorescent signals were imaged and quantified using Odyssey CLx and Image Studio v5.0. Primary antibodies used were: STUB1/CHIP (Cell Signaling Technology, #2080, 1:2000 dilution), STAT1 (Cell Signaling Technology, #14995, 1:10,000 dilution), phospho-Tyr701-STAT1 (Cell Signaling Technology, #9167, 1:2000 dilution), STAT2 (Cell Signaling Technology, #72604, 1:2000 dilution), IRF1 (Cell Signaling Technology, #8478, 1:2000 dilution), PSMB8 (Cell Signaling Technology, #13635, 1:2000 dilution), PSMB9 (Abcam, ab184172, 1:10,000 dilution), and PSMB10 (Abcam, ab183506, 1:10,000 dilution).

[3] = system: B16-F10 tumour in C57BL/6 J mice; experiment: Syngeneic B16-F10 model, GVAX then anti-PD-1; assay type: in vivo, mouse; settings: N 15, in mm³ (unit assumed)
Procedure: Female C57BL/6 J mice (stock no: 000664, Jackson Laboratory) between 7–8 weeks of age weighing approximately 18–22 g were used for the study. […] One day after tumour inoculation, mice were dosed subcutaneously into the abdomen with 1.0 × 10^6 per 100 µl GM-CSF-secreting B16 (GVAX) cells that had been irradiated with 35 Gy from a ^137Cs source discharging 124 rads min^−1. GVAX treatment was repeated on day 4. […] The treatment was repeated on day 9, 12, and 15. The start of the study where tumour inoculation is conducted is designated as day 0.
Body weights were taken twice per week.

## gStub1 #1 (guide GCATTGCTAAGAAGAAGCGC; chemistry not given here)
[1]
  Comment (knock-out by Western blot and ICE analysis): complete knock-out as assessed by Western blot and ICE analysis
  Indel: -12 -15
  Indel % (by Synthego ICE): 93%
[2]; IFNg 0.01 ng/ml
  PSMB8 (Fig. 1e): 171356
  PSMB9 (Fig. 1e): 214373
  PSMB10 (Fig. 1e): 83490
  STAT1 (Fig. 1e): 156019
[2]; IFNg 0.03 ng/ml
  PSMB8 (Fig. 1e): 202198
  PSMB9 (Fig. 1e): 947224
  PSMB10 (Fig. 1e): 557217
  STAT1 (Fig. 1e): 430481
[2]; IFNg 0.10 ng/ml
  PSMB8 (Fig. 1e): 232103
  PSMB9 (Fig. 1e): 2077116
  PSMB10 (Fig. 1e): 2055449
  STAT1 (Fig. 1e): 714350
[2]; IFNg 0.30 ng/ml
  PSMB8 (Fig. 1e): 334603
  PSMB9 (Fig. 1e): 3663399
  PSMB10 (Fig. 1e): 3429074
  STAT1 (Fig. 1e): 1243340
[2]; IFNg 1.00 ng/ml
  PSMB8 (Fig. 1e): 529221
  PSMB9 (Fig. 1e): 4935730
  PSMB10 (Fig. 1e): 4476630
  STAT1 (Fig. 1e): 1537016
[2]; IFNg Nil
  PSMB8 (Fig. 1e): 173338
  PSMB9 (Fig. 1e): 17374
  PSMB10 (Fig. 1e): 18816
  STAT1 (Fig. 1e): 22848
[3]; day 5, Mean
  tumour volume (Fig. 6b): 50.28
[3]; day 8, Mean
  tumour volume (Fig. 6b): 251.2
[3]; day 10, Mean
  tumour volume (Fig. 6b): 457.3
[3]; day 12, Mean
  tumour volume (Fig. 6b): 680.5
[3]; day 14, Mean
  tumour volume (Fig. 6b): 866
[3]; day 16, Mean
  tumour volume (Fig. 6b): 944.8

## IFNγ
[2]; Stub1-null B16-F10, 24 h IFNγ
  Protein expression of STAT1, STAT2, IRF1: upregulation of STAT1, STAT2, and IRF1 after 24 h stimulation with IFNγ
